Test results from PubChem BioAssay AID1845204 (Molecular Pharmacology Branch, DTP, NCI, 2023).

Tested on: HSSY-II tumor spheroid viability
Experiment: Anticancer human tumor HSSY-II cell line growth inhibition;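 also: spheroids exposed to compounds for seven days before reading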;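 as to viability, T/C: percent of DMSO vehicle control viability so 100% = untreated level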
Conditions: spheroids with HUVEC and MSC; for IC50: curve of first compound; for viability, T/C: stronger effect = lower value
In short: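 Single agents and combinations were tested on spheroids built from tumor cells plus HUVEC and hMSC, at half-log dilutions starting at or near clinical Cmax, else 10 microM; final DMSO 0.25% (v/v).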

[1] = second compound 1 µM, first compound 0.0316 µM
[2] = second compound 1 µM, first compound 0.1 µM
[3] = second compound 1 µM, first compound 0.316 µM
[4] = second compound 1 µM, first compound 1 µM
[5] = second compound 1 µM, first compound 3.16 µM
[6] = second compound 1 µM, first compound 10 µM
[7] = second compound 3.16 µM, first compound 0.0316 µM
[8] = second compound 3.16 µM, first compound 0.1 µM
[9] = second compound 3.16 µM, first compound 0.316 µM
[10] = second compound 3.16 µM, first compound 1 µM
[11] = second compound 3.16 µM, first compound 3.16 µM
[12] = second compound 3.16 µM, first compound 10 µM
[13] = second compound 10 µM, first compound 0.0316 µM
[14] = second compound 10 µM, first compound 0.1 µM
[15] = second compound 10 µM, first compound 0.316 µM
[16] = second compound 10 µM, first compound 1 µM
[17] = second compound 10 µM, first compound 3.16 µM
[18] = second compound 10 µM, first compound 10 µM
[19] = second compound 31.6 µM, first compound 0.0316 µM
[20] = second compound 31.6 µM, first compound 0.1 µM
[21] = second compound 31.6 µM, first compound 0.316 µM
[22] = second compound 31.6 µM, first compound 1 µM
[23] = second compound 31.6 µM, first compound 3.16 µM
[24] = second compound 31.6 µM, first compound 10 µM
[25] = second compound 100 µM, first compound 0.0316 µM
[26] = second compound 100 µM, first compound 0.1 µM
[27] = second compound 100 µM, first compound 0.316 µM
[28] = second compound 100 µM, first compound 1 µM
[29] = second compound 100 µM, first compound 3.16 µM
[30] = second compound 100 µM, first compound 10 µM

Row | Structure (SMILES) | IC50 (second compound 1 µM) [µM] | IC50 (second compound 3.16 µM) [µM] | IC50 (second compound 10 µM) [µM] | IC50 (second compound 31.6 µM) [µM] | IC50 (second compound 100 µM) [µM] | viability, T/C [1] [%] | viability, T/C [2] [%] | viability, T/C [3] [%] | viability, T/C [4] [%] | viability, T/C [5] [%] | viability, T/C [6] [%] | viability, T/C [7] [%] | viability, T/C [8] [%] | viability, T/C [9] [%] | viability, T/C [10] [%] | viability, T/C [11] [%] | viability, T/C [12] [%] | viability, T/C [13] [%] | viability, T/C [14] [%] | viability, T/C [15] [%] | also measured
1 | CC(C)n1c(=O)n(C)c2cnc3cc(F)c(-c4ccc(OCCCN5CCCCC5)nc4)cc3c21 + Cn1nnc2c(C(N)=O)ncn2c1=O | 6.4 | 6.7 | 6.54 | 5.86 | 9.48 | 100 | 97.4 | 97.2 | 89.6 | 72.7 | 35.8 | 102 | 102 | 98 | 93.7 | 70.1 | 39.2 | 103 | 107 | 97.4 | viability, T/C [16]: 97.4%; viability, T/C [17]: 73.7%; viability, T/C [18]: 36%; viability, T/C [19]: 108%; viability, T/C [20]: 96%; viability, T/C [21]: 92.4%; viability, T/C [22]: 89.9%; viability, T/C [23]: 70.9%; viability, T/C [24]: 32.4%; viability, T/C [25]: 88.5%; viability, T/C [26]: 92.9%; viability, T/C [27]: 86.5%; viability, T/C [28]: 76.1%; viability, T/C [29]: 69.6%; viability, T/C [30]: 48.4%
2 | CC1COCCN1c1cc(-c2ccnn2C)c2ccnc(-c3ccn[nH]3)c2n1 (stereo not given) + Cn1nnc2c(C(N)=O)ncn2c1=O | < 0.0316 | < 0.0316 | < 0.0316 | < 0.0316 | < 0.0316 | 29 | 6.4 | 2.45 | 1.92 | 1.78 | 2.4 | 25.1 | 6.11 | 2.71 | 2.03 | 1.93 | 2.28 | 19 | 6.18 | 2.63 | viability, T/C [16]: 2%; viability, T/C [17]: 1.88%; viability, T/C [18]: 2.59%; viability, T/C [19]: 16.2%; viability, T/C [20]: 4.45%; viability, T/C [21]: 2.43%; viability, T/C [22]: 2%; viability, T/C [23]: 2.1%; viability, T/C [24]: 2.35%; viability, T/C [25]: 6.2%; viability, T/C [26]: 4.15%; viability, T/C [27]: 2.65%; viability, T/C [28]: 2.04%; viability, T/C [29]: 1.79%; viability, T/C [30]: 1.82%
3 | COc1cc(C)[nH]c(=O)c1CN1CCc2c(Cl)cc(C(OC)C3COC3)c(Cl)c2C1=O (stereo not given) + Cn1nnc2c(C(N)=O)ncn2c1=O | > 10 | > 10 | > 10 | > 10 | > 10 | 96.7 | 93.1 | 69.1 | 69.2 | 63.2 | 63 | 96.7 | 84.2 | 76.5 | 66.2 | 64.6 | 60.9 | 95.3 | 94.2 | 75.6 | viability, T/C [16]: 66.8%; viability, T/C [17]: 62.7%; viability, T/C [18]: 63%; viability, T/C [19]: 99.7%; viability, T/C [20]: 96.3%; viability, T/C [21]: 76.9%; viability, T/C [22]: 66.8%; viability, T/C [23]: 65.8%; viability, T/C [24]: 64.6%; viability, T/C [25]: 96.7%; viability, T/C [26]: 91.4%; viability, T/C [27]: 74.8%; viability, T/C [28]: 67.4%; viability, T/C [29]: 68.9%; viability, T/C [30]: 63.7%
4 | COc1ccc([C@@H](O)c2cc(-c3ncnc4cc(N5CCOCC5)ccc34)c(F)cc2Cl)nn1 + Cn1nnc2c(C(N)=O)ncn2c1=O | 2.23 | 1.92 | 1.91 | 1.88 | 1.06 | 102 | 95.8 | 90.8 | 64.5 | 44 | 13.5 | 100 | 94.3 | 88.7 | 63.5 | 39.4 | 16.8 | 94 | 92.1 | 89.6 | viability, T/C [16]: 66.6%; viability, T/C [17]: 36.8%; viability, T/C [18]: 15.9%; viability, T/C [19]: 98%; viability, T/C [20]: 98.2%; viability, T/C [21]: 81.5%; viability, T/C [22]: 64.8%; viability, T/C [23]: 38.5%; viability, T/C [24]: 20.6%; viability, T/C [25]: 83.2%; viability, T/C [26]: 83%; viability, T/C [27]: 70.7%; viability, T/C [28]: 48%; viability, T/C [29]: 32.3%; viability, T/C [30]: 12.8%
5 | Cc1cc(C)c(CNC(=O)c2cc(-c3ccc(CN4CCOCC4)cc3)cc3c2cnn3C2CCCC2)c(=O)[nH]1 + Cn1nnc2c(C(N)=O)ncn2c1=O | > 10 | > 10 | > 10 | > 10 | > 10 | 98.4 | 105 | 92.8 | 97.2 | 91.4 | 79.8 | 101 | 99.1 | 95.1 | 98.7 | 89.9 | 72.7 | 98 | 98.2 | 100 | viability, T/C [16]: 93.5%; viability, T/C [17]: 92.6%; viability, T/C [18]: 68.4%; viability, T/C [19]: 104%; viability, T/C [20]: 98%; viability, T/C [21]: 94.4%; viability, T/C [22]: 102%; viability, T/C [23]: 88.4%; viability, T/C [24]: 73.8%; viability, T/C [25]: 94%; viability, T/C [26]: 93.9%; viability, T/C [27]: 91%; viability, T/C [28]: 95.5%; viability, T/C [29]: 85.2%; viability, T/C [30]: 70.4%
6 | [2H]c1nc(C)nc([2H])c1-c1cc(NC[C@@H](C)c2cccc3c(C(=O)NC)ccnc23)ncn1 + Cn1nnc2c(C(N)=O)ncn2c1=O | > 10 | > 10 | > 10 | > 10 | > 10 | 103 | 101 | 100 | 96.8 | 93.8 | 91.7 | 104 | 100 | 98.5 | 107 | 94.1 | 90.8 | 98.2 | 103 | 101 | viability, T/C [16]: 97.5%; viability, T/C [17]: 95.3%; viability, T/C [18]: 86.2%; viability, T/C [19]: 108%; viability, T/C [20]: 102%; viability, T/C [21]: 106%; viability, T/C [22]: 102%; viability, T/C [23]: 97.2%; viability, T/C [24]: 94.4%; viability, T/C [25]: 91.1%; viability, T/C [26]: 94.4%; viability, T/C [27]: 95.2%; viability, T/C [28]: 91.4%; viability, T/C [29]: 90.9%; viability, T/C [30]: 85%
